Measured values from PubChem BioAssay (NCI).
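Method: 48-hour compound exposure of cells in 96-well plates, five concentrations, linear interpolation of endpoints. At the GI50, growth is halved. Definition used: TGI = concentration required for complete inhibition of growth.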

Legend:
Assay in all cases: growth of human tumour cells (NCI), 48 h
A498 renal = tested on: A498 renal
EKVX NSCLC = tested on: EKVX NSCLC
HCC-2998 colon = tested on: HCC-2998 colon
KM12 colon = tested on: KM12 colon
NCI-H23 lung = tested on: NCI-H23 lung
SF-539 CNS = tested on: SF-539 CNS
SK-MEL-28 melanoma = tested on: SK-MEL-28 melanoma
SW-620 colon = tested on: SW-620 colon
MCF7 breast = tested on: MCF7 breast
PC-3 prostate = tested on: PC-3 prostate

Row | SMILES | TGI (A498 renal) [µM] | TGI (EKVX NSCLC) [µM] | TGI (HCC-2998 colon) [µM] | TGI (KM12 colon) [µM] | TGI (NCI-H23 lung) [µM] | TGI (SF-539 CNS) [µM] | TGI (SK-MEL-28 melanoma) [µM] | TGI (SW-620 colon) [µM] | GI50 (A498 renal) [µM] | GI50 (EKVX NSCLC) [µM] | GI50 (HCC-2998 colon) [µM] | GI50 (KM12 colon) [µM] | GI50 (NCI-H23 lung) [µM] | GI50 (SF-539 CNS) [µM] | GI50 (SK-MEL-28 melanoma) [µM] | GI50 (SW-620 colon) [µM] | TGI (MCF7 breast) [µM] | TGI (PC-3 prostate) [µM] | GI50 (MCF7 breast) [µM] | GI50 (PC-3 prostate) [µM]
1 | O=C(O)CSc1n[nH]c(-c2ccccc2)n1 | > 100 | > 100 | > 100 | > 100 | > 100 | > 100 | > 100 | > 100 | – | – | – | – | – | – | – | – | – | – | – | –
2 | COc1cccc(/C=N/[N-]C(=O)c2ccncc2)c1[O-].[Cu+2].[OH3+] | > 100 | > 100 | > 100 | > 100 | > 100 | 76.8 | > 100 | > 100 | 58.4 | 58 | > 100 | > 100 | 34.1 | 18.2 | > 100 | 48.2 | – | – | – | –
3 | C1CSCCSCCS1 | – | > 100 | > 100 | > 100 | > 100 | > 100 | > 100 | > 100 | – | – | – | – | – | – | – | – | > 100 | > 100 | – | –
4 | CN(C)c1c([O-])c(=[N+](C)C)c1=O | > 100 | > 100 | > 100 | > 100 | > 100 | > 100 | > 100 | > 100 | – | – | – | – | – | – | – | – | – | – | – | –
5 | Cc1ccc(Cn2c(C)nc3c2C(=O)c2ccccc2C3=O)cc1 | – | > 100 | > 100 | > 100 | 20.5 | 18.7 | > 100 | > 100 | – | – | – | – | – | – | – | – | – | – | – | –
6 | CC1=C2CCCC2=C/C(=N/Nc2ccc([N+](=O)[O-])cc2[N+](=O)[O-])CC1 | – | > 100 | – | > 100 | > 100 | > 100 | > 100 | > 100 | – | – | – | – | – | – | – | – | – | – | – | –
7 | Nc1c(C(=O)Nc2cccc(Br)c2)sc2nc3c(cc12)C(=O)CCC3 | 8.33 | – | > 53.2 | > 100 | > 100 | > 100 | > 100 | > 100 | 0.189 | – | 1.46 | 0.349 | 0.583 | 0.448 | – | 0.426 | > 100 | > 100 | 0.373 | 0.457
8 | O=C1[C@@H]2C3c4ccccc4C([C@@H]2C(=O)N1c1ccccc1)S3(=O)=O | – | > 100 | > 100 | > 100 | > 100 | > 100 | – | > 100 | – | – | – | – | – | – | – | – | – | – | – | –
9 | C[C@H]1NC(=O)C2CCCCN2C(=O)CN(C)C(=O)CNC(=O)C2CCCCN2C(=O)[C@@H](NC(=O)c2nc3ccccc3cc2O)[C@@H](C)NC(=O)C2CCCCN2C(=O)CN(C)C(=O)CNC(=O)[C@@H]2CCCCN2C(=O)C1NC(=O)c1nc2ccccc2cc1O (stereo not given in full) | – | 23.2 | 0.479 | 18.7 | 0.69 | 0.698 | 0.465 | 12.3 | – | – | – | – | – | – | – | – | – | – | – | –
10 | CC(=O)O[C@H]1CCC2[C@@H]3CCC4=C(O)c5nocc5C[C@]4(C)C3CC[C@@]21C (stereo not given in full) | > 100 | > 100 | – | > 100 | > 100 | > 100 | > 100 | > 100 | – | – | – | – | – | – | – | – | – | – | – | –
11 | CCC1C2C=CC(CC2)N1S(=O)(=O)c1ccc(C)cc1 (stereo not given) | > 100 | > 100 | – | > 100 | – | 76.6 | – | 50.3 | – | – | – | – | – | – | – | – | – | – | – | –
12 | Cc1ccc(NC(=O)C2C(=O)N(c3ccc(C)c(C)c3)C(=O)C2N=N)cc1C (stereo not given) | > 100 | > 100 | > 100 | > 100 | > 100 | > 100 | > 100 | > 100 | – | – | – | – | – | – | – | – | – | – | – | –
13 | C=CCCCCCCCCCCC1(O)C=CC2=[N+](CCCCCN=C(N)N)CCCN21 (stereo not given) | – | 26.7 | 24.6 | 18.7 | 32.3 | 7.71 | 31.8 | 24.2 | – | 10.8 | 2.66 | 3.42 | 12.9 | 2.84 | 13.6 | 8.11 | 40.8 | 6.39 | 12.3 | 0.466
14 | CCCCCCC[CH2][Sn]1([CH2]CCCCCCC)[O]C(=O)c2cccnc2[S]1 | > 100 | > 100 | > 100 | > 100 | > 100 | > 100 | > 100 | > 100 | > 100 | > 100 | > 100 | > 100 | > 100 | > 100 | > 100 | > 100 | – | – | – | –
15 | CCc1cccc(C)c1NC(=O)C(=O)Cc1nc2ccccc2o1 | > 100 | > 100 | > 100 | – | > 100 | > 100 | > 100 | > 100 | – | – | – | – | – | – | – | – | – | – | – | –
16 | O=C(CSc1nnc(-c2ccc(N=Cc3ccc(Cl)cc3)cc2)o1)Nc1ccc(Cl)cc1 | – | > 100 | – | > 100 | > 100 | – | > 100 | > 100 | – | – | – | – | – | – | – | – | – | – | – | –
17 | CCOc1ccc(N2C(=O)/C(=C/c3ccc(N(CCC#N)CCC#N)cc3)N=C2c2cc([N+](=O)[O-])ccc2Cl)cc1 | > 100 | > 100 | > 100 | 55.3 | > 100 | > 100 | 41.8 | 55.9 | – | – | – | – | – | – | – | – | – | – | – | –
18 | COC12C=C/C(=C(/C(=O)OCc3ccncc3)C(=O)CCCCCCCCC3(OC)C=C/C(=C(/C(=O)OCc4ccncc4)C(=O)CCCCCCCC1)O3)O2 | 1.48 | 5.1 | 1.39 | 1.78 | 0.762 | 2.03 | 1.79 | 1.26 | 0.78 | 1.21 | 0.683 | 0.78 | 0.178 | 0.877 | 0.29 | 0.227 | – | 2.67 | – | 0.761
19 | Cc1ccc(-c2nc3ccc([N+](=O)[O-])cc3[nH]2)cc1 | – | > 100 | > 100 | > 100 | > 100 | > 100 | > 100 | > 100 | – | – | – | – | – | – | – | – | > 100 | > 100 | – | –
20 | O=C(O)[C@H](NS(=O)(=O)c1ccc2ccccc2c1)c1ccccc1 | > 100 | – | > 100 | – | > 100 | > 100 | > 100 | – | – | – | – | – | – | – | – | – | – | – | – | –
21 | COc1ccc2oc(-c3cccnc3)cc(=O)c2c1 | > 100 | – | > 100 | > 100 | > 100 | – | > 100 | – | – | – | – | – | – | – | – | – | – | – | – | –
